According to patent publication US11033574B2, “Method for treating schizophrenia” (MiZ Company Limited, priority 2018, dated 2021):

System: schizophrenia
Method: At the initiation of hydrogen gas inhalation, a drug therapy with Abilify (intramuscular injection, 400 mg/month, once) and Lexotan tablets (oral administration, 6 mg/day, 3 times per day) was carried out.
Conditions of hydrogen gas inhalation were as follows:
For 40 days after initiation of inhalation: once per day, 70 mL/minute;
The subsequent 1 month: 2 hours per day, 70 mL/minute, hydrogen gas concentration: 3.0 to 4.0%;
The subsequent 4 months: 2 hours per day, 140 mL/minute, hydrogen gas concentration: 6.0 to 7.0%;
The subsequent 4 months: 6 hours per day, 280 mL/minute, hydrogen gas concentration: 6.0 to 7.0% (two hydrogen inhalers were used).
Thereafter, the patient was allowed to inhale hydrogen gas (6.0 to 7.0%, 280 mL/minute) for 6 hours/day, continuously for 9 months.

[1] = about 10 months after initiation of hydrogen inhalation

[HH] [hydrogen gas]
time for which injection of a medicine (once a month) was continued after initiation of hydrogen inhalation, thereafter stopped (Abilify intramuscular injection, 400 mg/month): 8 months
time after initiation of hydrogen inhalation at which administration of the oral medicine was terminated (Lexotan tablets, oral, 6 mg/day, hydrogen once per day, 70 mL/minute): Ten
disease-state in the period during which hydrogen inhalation was continued [1]: stably maintained
phase of the disease [1]: recovery phase
time after initiation of inhalation when use of the sleeping pill was stopped (brotizolam tablet, 0.25 mg/day): About 6 months
time after initiation of inhalation when the patient started to fall asleep without taking the sleeping pill (brotizolam tablet, 0.25 mg/day, every day at initiation): about 2 months
value of the patient in the examination (examination in January of 2019): the same as in a healthy person
disease state according to medical examination during an office visit (further 9 months of hydrogen gas 6.0 to 7.0%, 280 mL/minute, 6 hours/day): stable
recurrence after inhalation of hydrogen gas was stopped (inhalation stopped in March of 2019): no recurrence occurred
consecutive symptom, hallucination (patient, schizophrenia onset 13 years ago, on Abilify and Lexotan, after initiation of hydrogen inhalation, 3.0 to 6.0%): disappeared
